Test system: iMSCs
Assay: iMSC expansion, seeded at 1000 cells/well, day 10 morphology and cell number
Assay type: cell-based
Experimental: Cryopreserved iMSCs (RC01005, Nuwacell Co., Ltd.) were seeded in 6-well plates at 1000 cells/well in M1 medium to thaw the cells. The medium was replaced 24 h later with 2 ml/well of the following medium: M1; or M2 (5% HPLT) further supplemented with or without one or more growth factors (F: FGF2 (10 ng/ml, Nuwacell Co., Ltd.); P: PDFG-BB (10 ng/ml, Cat. No.: 100-14B-100, Peprotech); T: TGFβ1 (1 ng/ml, Cat. No.: 100-21, Peprotech)) in the absence or presence of hydrocortisone (1 μM, Cat. No.: 4098, Tocris). […] The medium was changed with the same medium every three days. On day 10 of culture, the cells were digested by solase (RP01021, Nuwacell Co., Ltd.) for 3 min and collected, and then centrifugated, and with the supernatant removed, resuspended in the corresponding medium, and the number of iMSC cells was counted by cell viability analyzer (Vi-CELLTMXR, BECKMAN COULTER) (FIG. 5).

Molecule | effect of addition on iMSC proliferation (Example 5, hydrocortisone 1 μM added to M2 (5% HPLT)) | effect of addition to M3 on iMSC growth (Example 13, 4 mg/L dialyzed HSA, 25 μg/ml heparin sodium, FIG. 13)
C[C@]12CCC(=O)C=C1CC[C@@H]1[C@@H]2[C@@H](O)C[C@@]2(C)[C@H]1CC[C@]2(O)C(=O)CO [hydrocortisone] | could promote the iMSC proliferation | –
heparin sodium | – | could further promote iMSC growth
